# Assays:
# Format in all cases: cell-based
# [1] = tested on: Aspergillus niger; assay: MIC, RPMI medium; details: MIC banded into grades; for MIC: Aspergillus niger, read-out: MIC grade, A. niger
# Procedure, shortened: (§1)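 MIC taken as lowest drug level inhibiting growth by >80% relative to drug-free wells, read as OD at 485 nm after 24-48 h at 35° C. Organisms at 1−2×10^4 cfu/mL in RPMI (2% glucose, 0.135 M MOPS, pH 7.0) exposed to doubling dilutions spanning 50-0.05 mg/L.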
# [2] = tested on: Aspergillus flavus; assay: MIC, RPMI medium; details: MIC banded into grades; for MIC: Aspergillus flavus, read-out: MIC grade, A. flavus
# Procedure, shortened: as §1
# [3] = tested on: Aspergillus fumigatus AF293; assay: MIC, RPMI medium; details: for MIC: Aspergillus fumigatus, AF293, MIC banded into grades, read-out: MIC grade, A. fumigatus
# Procedure, shortened: as §1
# [4] = tested on: Aspergillus fumigatus AF210; assay: MIC, RPMI medium; details: for MIC: Aspergillus fumigatus, AF210, MIC banded into grades, read-out: MIC grade, A. fumigatus 210
# Procedure, shortened: as §1
# [5] = tested on: Candida tropicalis; assay: MIC, RPMI medium; details: 24-48 h at 35° C., >80% growth inhibition, banded into grades
# Procedure, shortened: as §1
# [6] = tested on: Candida albicans; assay: MIC, RPMI medium; details: 24-48 h at 35° C., >80% growth inhibition, banded into grades
# Procedure, shortened: as §1
# [7] = tested on: Aspergillus terreus AT49; assay: MIC, RPMI medium; details: for MIC: Aspergillus terreus, AT49, MIC banded into grades, read-out: MIC grade, A. terreus 49
# Procedure, shortened: as §1
# [8] = tested on: Aspergillus terreus AT4; assay: MIC, RPMI medium; details: for MIC: Aspergillus terreus, AT4, MIC banded into grades, read-out: MIC grade, A. terreus
# Procedure, shortened: as §1
# [9] = tested on: Candida krusei; assay: MIC, RPMI medium; details: 24-48 h at 35° C., >80% growth inhibition, banded into grades
# Procedure, shortened: as §1
# [10] = tested on: Candida parapsilosis; assay: MIC, RPMI medium; details: 24-48 h at 35° C., >80% growth inhibition, banded into grades
# Procedure, shortened: as §1
# [11] = tested on: Candida glabrata; assay: MIC, RPMI medium; details: 24-48 h at 35° C., >80% growth inhibition, banded into grades
# Procedure, shortened: as §1
# [12] = tested on: Aspergillus niger; assay: MIC, YAG medium; details: 24 h at 35° C, MIC banded into grades; for MIC: Aspergillus niger, read-out: MIC grade, A. niger
# Procedure, shortened: (§2)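 Broth microdilution in YAG medium tests compound over 50-0.05 mg/L against spores at 1−2×10^4 cfu/mL. After 24 h incubation at 35° C, optical density at 485 nm gives growth, and the MIC is the lowest concentration reducing it by more than 70% relative to untreated control.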
# [13] = tested on: Aspergillus flavus; assay: MIC, YAG medium; details: 24 h at 35° C, MIC banded into grades; for MIC: Aspergillus flavus, 24 h, read-out: MIC grade, A. flavus
# Procedure, shortened: as §2
# [14] = tested on: Aspergillus fumigatus AF293; assay: MIC, YAG medium; details: 24 h at 35° C, MIC banded into grades; for MIC: Aspergillus fumigatus, read-out: MIC grade, A. fumigatus
# Procedure, shortened: as §2
# [15] = tested on: Aspergillus fumigatus AF210; assay: MIC, YAG medium; details: 24 h at 35° C, MIC banded into grades; for MIC: Aspergillus fumigatus, read-out: MIC grade, A. fumigatus 210
# Procedure, shortened: as §2
# [16] = tested on: Aspergillus terreus AT49; assay: MIC, YAG medium; details: 24 h at 35° C, MIC banded into grades; for MIC: Aspergillus terreus, read-out: MIC grade, A. terreus 49
# Procedure, shortened: as §2
# [17] = tested on: Aspergillus terreus AT4; assay: MIC, YAG medium; details: 24 h at 35° C, MIC banded into grades; for MIC: Aspergillus terreus, read-out: MIC grade, A. terreus
# Procedure, shortened: as §2
Compound,MIC [1],MIC [2],MIC [3],MIC [4],MIC [7],MIC [8],MIC [12],MIC [13],MIC [14],MIC [15],MIC [16],MIC [17],further results
"COC(=O)Cn1ccc(CC(C)C)c1C(=O)C(=O)Nc1ccc(N2CCN(c3cc(C)cc(C)n3)CC2)cc1 [Example 89, (2-{4-[4-(4,6-Dimethyl-pyridin-2-yl)-piperazin-1-yl]-phenylaminooxalyl}-3-isobutyl-pyrrol-1-yl)-acetic acid methyl ester]",,,,,,,,,,,,,"MIC grade, A. niger [1]: 2 (A grade of 2 represents an MIC of from 1 to 10 mg/L); MIC grade, A. flavus [2]: 1 (a grade of 1 represents an MIC of greater than 10 mg/L); MIC grade, A. fumigatus ([3]; MIC banded into grades): 2 (A grade of 2 represents an MIC of from 1 to 10 mg/L); MIC grade, A. fumigatus 210 ([4]; MIC banded into grades): 2 (A grade of 2 represents an MIC of from 1 to 10 mg/L); Candida MIC, C. tropicalis [5]: 3 (A grade of 3 represents an MIC of less than 1 mg/L); Candida MIC, C. albicans [6]: 2 (A grade of 2 represents an MIC of from 1 to 10 mg/L); MIC grade, A. terreus 49 ([7]; MIC banded into grades): 1 (a grade of 1 represents an MIC of greater than 10 mg/L); MIC grade, A. terreus ([8]; MIC banded into grades): 1 (a grade of 1 represents an MIC of greater than 10 mg/L); Candida MIC, C. krusei [9]: 3 (A grade of 3 represents an MIC of less than 1 mg/L); Candida MIC, C. parapsilosis [10]: 3 (A grade of 3 represents an MIC of less than 1 mg/L); Candida MIC, C. glabrata [11]: 3 (A grade of 3 represents an MIC of less than 1 mg/L); MIC grade, A. niger [12]: 2 (A grade of 2 represents an MIC of from 1 to 10 mg/L); MIC grade, A. flavus [13]: 1 (a grade of 1 represents an MIC of greater than 10 mg/L); MIC grade, A. fumigatus [14]: 3 (A grade of 3 represents an MIC of less than 1 mg/L); MIC grade, A. fumigatus 210 [15]: 3 (A grade of 3 represents an MIC of less than 1 mg/L); MIC grade, A. terreus 49 [16]: 2 (A grade of 2 represents an MIC of from 1 to 10 mg/L); MIC grade, A. terreus [17]: 2 (A grade of 2 represents an MIC of from 1 to 10 mg/L)"
"Cc1cc(C)nc(N2CCN(c3ccc(NC(=O)C(=O)c4c(-c5ccccc5)cc(C)n4C)cc3COCCN(C)C)CC2)c1 [Example 17, N-{3-(2-Dimethylamino-ethoxymethyl)-4-[4-(4,6-dimethyl-pyridin-2-yl)-piperazin-1-yl]-phenyl}-2-(1,5-dimethyl-3-phenyl-1H-pyrrol-2-yl)-2-oxo-acetamide]",> 10 µg/mL,> 10 µg/mL,> 10 µg/mL,> 10 µg/mL,> 10 µg/mL,> 10 µg/mL,1 to 10 µg/mL,1 to 10 µg/mL,1 to 10 µg/mL,1 to 10 µg/mL,1 to 10 µg/mL,1 to 10 µg/mL,
"Cc1cc(C)nc(N2CCN(c3ccc(NC(=O)C(=O)c4c(-c5ccccc5)cc(C)n4C)cc3C)CC2)c1 [Example 51, 2-(1,5-Dimethyl-3-phenyl-1H-pyrrol-2-yl)-N-{4-[4-(4,6-dimethyl-pyridin-2-yl)-piperazin-1-yl]-3-methyl-phenyl}-2-oxo-acetamide]",< 1 µg/mL,< 1 µg/mL,< 1 µg/mL,< 1 µg/mL,< 1 µg/mL,< 1 µg/mL,< 1 µg/mL,< 1 µg/mL,< 1 µg/mL,< 1 µg/mL,< 1 µg/mL,< 1 µg/mL,
"COCCn1ccc(-c2cccs2)c1C(=O)C(=O)Nc1ccc(N2CCN(c3cc(C)cc(C)n3)CC2)cc1 [Example 67, N-{4-[4-(4,6-Dimethyl-pyridin-2-yl)-piperazin-1-yl]-phenyl}-2-[1-(2-methoxy-ethyl)-3-thiophen-2-yl-1H-pyrrol-2-yl]-2-oxo-acetamide]",> 10 µg/mL,1 to 10 µg/mL,1 to 10 µg/mL,1 to 10 µg/mL,< 1 µg/mL,< 1 µg/mL,1 to 10 µg/mL,< 1 µg/mL,< 1 µg/mL,< 1 µg/mL,< 1 µg/mL,< 1 µg/mL,
"COCCn1c(C)cc(-c2ccccc2)c1C(=O)C(=O)Nc1ccc(N2CCN(c3cc(C)cc(C)n3)CC2)cc1F [Example 123, N-{4-[4-(4,6-Dimethyl-pyridin-2-yl)-piperazin-1-yl]-2-fluoro-phenyl}-2-[1-(2-methoxy-ethyl)-5-methyl-3-phenyl-1H-pyrrol-2-yl)-2-oxo-acetamide]",< 1 µg/mL,< 1 µg/mL,< 1 µg/mL,< 1 µg/mL,1 to 10 µg/mL,< 1 µg/mL,< 1 µg/mL,< 1 µg/mL,< 1 µg/mL,< 1 µg/mL,< 1 µg/mL,< 1 µg/mL,
"Cc1cc(C)nc(N2CCN(c3ccc(NC(=O)C(=O)c4c(-c5ccccc5)cc(C)n4Cc4ccccc4)cc3)CC2)c1 [Example 48, 2-(1-Benzyl-5-methyl-3-phenyl-1H-pyrrol-2-yl)-N-{4-[4-(4,6-dimethyl-pyridin-2-yl)-piperazin-1-yl]-phenyl}-2-oxo-acetamide]",> 10 µg/mL,> 10 µg/mL,> 10 µg/mL,> 10 µg/mL,> 10 µg/mL,> 10 µg/mL,> 10 µg/mL,> 10 µg/mL,1 to 10 µg/mL,< 1 µg/mL,> 10 µg/mL,> 10 µg/mL,

# Second part, led by results:
MIC [1],MIC [2],MIC [3],MIC [4],MIC [7],MIC [8],MIC [12],MIC [13],MIC [14],MIC [15],MIC [16],MIC [17],Compound,further results
< 1 µg/mL,< 1 µg/mL,< 1 µg/mL,< 1 µg/mL,< 1 µg/mL,< 1 µg/mL,1 to 10 µg/mL,< 1 µg/mL,< 1 µg/mL,< 1 µg/mL,< 1 µg/mL,< 1 µg/mL,"COCn1ccc(-c2ccccc2)c1C(=O)C(=O)Nc1ccc(N2CCN(c3cc(C)cc(C)n3)CC2)cc1 [Example 63, N-{4-[4-(4,6-Dimethyl-pyridin-2-yl)-piperazin-1-yl]-phenyl}-2-(1-methoxymethyl-3-phenyl-1H-pyrrol-2-yl)-2-oxo-acetamide]",MIC ([5]; Candida tropicalis): < 1 µg/mL; MIC ([6]; Candida albicans): 1 to 10 µg/mL; MIC ([9]; Pichia kudriavzevii): < 1 µg/mL; MIC ([10]; Lodderomyces parapsilosis): < 1 µg/mL; MIC ([11]; Nakaseomyces glabratus): < 1 µg/mL
< 1 µg/mL,< 1 µg/mL,< 1 µg/mL,< 1 µg/mL,< 1 µg/mL,< 1 µg/mL,< 1 µg/mL,< 1 µg/mL,< 1 µg/mL,< 1 µg/mL,< 1 µg/mL,< 1 µg/mL,"Cc1cc(-c2ccccc2)c(C(=O)C(=O)Nc2ccc(N3CCN(CC(C)C)CC3)c(F)c2)n1C [Example 118, 2-(1,5-Dimethyl-3-phenyl-1H-pyrrol-2-yl)-N-[3-fluoro-4-(4-isobutyl-piperazin-1-yl)-phenyl]-2-oxo-acetamide]",
< 1 µg/mL,< 1 µg/mL,< 1 µg/mL,< 1 µg/mL,< 1 µg/mL,< 1 µg/mL,< 1 µg/mL,< 1 µg/mL,< 1 µg/mL,< 1 µg/mL,< 1 µg/mL,< 1 µg/mL,"Cc1cc(-c2ccccc2)c(C(=O)C(=O)Nc2ccc(N3CCN(C(C)Cc4ccco4)CC3)cc2)n1C (stereo not shown) [Example 152, 2-(1,5-Dimethyl-3-phenyl-1H-pyrrol-2-yl)-N-{4-[4-(2-furan-2-yl-1-methyl-ethyl)-piperazin-1-yl]-phenyl}-2-oxo-acetamide]",
< 1 µg/mL,< 1 µg/mL,< 1 µg/mL,< 1 µg/mL,< 1 µg/mL,< 1 µg/mL,< 1 µg/mL,< 1 µg/mL,< 1 µg/mL,< 1 µg/mL,< 1 µg/mL,< 1 µg/mL,"Cc1cc(-c2ccccc2)c(C(=O)C(=O)Nc2ccc(N3CCN(CC(C)(C)C)CC3)cc2F)n1C [Example 112, 2-(1,5-Dimethyl-3-phenyl-1H-pyrrol-2-yl)-N-{4-[4-(2,2-dimethyl-propyl)-piperazin-1-yl]-2-fluoro-phenyl}-2-oxo-acetamide]",
